Laboratory results: patent US7417053B2, “Pyrazolo[1,5-a]pyridine derivatives or pharmaceutically acceptable salts thereof” (Teijin Pharma Limited, priority 2005, dated 2008)
Counter-ions that a name gives are not always drawn.

biological target: recombinant human MAPKAP-K2 (Homo sapiens, UniProt P49137); experiment: Inhibitory activity against MAPKAP-K2 enzyme (33P-ATP peptide phosphorylation); assay type: biochemical; conditions: recombinant human MAPKAP-K2, ATP 20 μmol/L solution, room temperature 30 min; read-out: Activity Strength (MAPKAP-K2 IC50 value)
Method: General Measurement Method for Determining the Inhibitory Activity Against MAPKAP-K2 enzyme
(Preparation of Solutions of Compounds)
Each compound was dissolved in DMSO to prepare a solution with a concentration of 20 mmol/L and this solution was stored at −20° C. This stock solution was diluted with DMSO successively to prepare solutions with 200-fold concentrations of a necessary range. These solutions were further diluted with water at a ratio of 1:20 to prepare solutions with 10-fold concentrations of a necessary range. Each of these solutions (5 μL) was used for each reaction in 50 μL-scale. Through the dilution series of all compounds, the final DMSO concentration was kept at 0.5%. Conventional tests for the compounds were carried out at a final concentration range from 100 μmol/L to 0.03 μmol/L. but in some cases, tests were carried out at lower concentrations, depending on activity.
(Measurements of MAPKAP-K2 Enzyme Activities)
To a 5% DMSO aqueous solution (5 μL) of a test compound, a solution (25 μL) containing a peptide substrate [peptide substrate 60 μmol/L, ATP 20 μmol/L, Tris buffer 60 mmol/L (pH 7.5), EGTA 0.2 mmol/L, β-mercaptoethanol 0.2%, magnesium acetate 20 mmol/L, [γ-33P]ATP 0.1 μCi (specific radioactivity ca. 110 TBq/mmol)] was added. The reaction was initiated by adding a solution (20 μL) containing MAPKAP-K2 enzyme [recombinant human MAPKAP-K2 10 mU, Tris buffer […] (pH 7.5), EGTA 0.1 mmol/L, β-mercaptoethanol 0.1%, BSA 0.1%]. After the reaction was carried out at room temperature for 30 min, 200 mmol/L phosphoric acid (50 μL) was added to quench the reaction, and 90 μL of the reaction mixture was adsorbed on a multiscreen PH plate (Millipore). The plate was washed with 100 mmol/L phosphoric acid. After the plate was dried, 30 μL of MicroScint-O (Perkin-Elmer) was added, and the count per minute was measured on a scintillation counter to determine the inhibitory activity. The peptide substrate was Lys-Lys-Leu-Asn-Arg-Thr-Leu-Ser-Val-Ala.
• % Reference=(X−B)/(Tot−B)×100 • % Inhibition=100−% Reference • X represents count per minute of the well with a test compound applied. • B represents count per minute of the well without the enzyme. • Tot represents count per minute of the well with only DMSO solvent and no test compound applied. (Calculation of MAPKAP-K2 Inhibitory Activity) • IC50 value represents a concentration of compound at which 50% inhibition is observed.

recombinant human MAPKAP-K2, sequence (P49137 whole entry): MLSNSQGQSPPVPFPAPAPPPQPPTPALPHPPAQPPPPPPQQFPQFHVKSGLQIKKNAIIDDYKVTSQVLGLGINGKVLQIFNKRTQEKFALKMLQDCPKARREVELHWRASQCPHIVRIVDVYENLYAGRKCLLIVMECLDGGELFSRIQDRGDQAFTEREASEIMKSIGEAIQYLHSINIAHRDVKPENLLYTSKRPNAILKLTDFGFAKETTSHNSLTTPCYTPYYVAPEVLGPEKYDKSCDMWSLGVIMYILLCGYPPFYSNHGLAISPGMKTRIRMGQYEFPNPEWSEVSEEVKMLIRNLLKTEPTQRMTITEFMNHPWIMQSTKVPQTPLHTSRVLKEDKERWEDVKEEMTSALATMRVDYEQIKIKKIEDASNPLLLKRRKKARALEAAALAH

| Structure (SMILES) | IC50 [nM] |
| --- | --- |
| CCOc1ccc(Nc2c(C)c(NCCC3CCCN3C)c(C#N)c3ccnn23)cc1 (stereo not drawn) [Compound 133, 7-[(4-Ethoxyphenyl)amino]-6-methyl-5-{[2-(1-methylpyrrolidin-2-yl)ethyl]amino}pyrazolo[1,5-a]pyridine-4-carbonitrile trifluoroacetate salt] | 10000 to 100000 |
| CCc1nc2ccc(Nc3c(C)c(N[C@H]4CCCNC4)c(C#N)c4ccnn34)cc2s1 [Compound 118, 5-[((3S)-3-Piperidyl)amino]-7-[(2-ethylbenzothiazol-6-yl)amino]-6-methylpyrazolo[1,5-a]pyridine-4-carbonitrile trifluoroacetate salt] | < 200 |
| Cc1nc2ccc(Nc3cc(N[C@H]4CC[C@H](N)CC4)c(C#N)c4ccnn34)cc2s1 [Compound 96, 5-(trans-4-Aminocyclohexylamino)-7-(2-methylbenzothiazol-6-ylamino)pyrazolo[1,5-a]pyridine-4-carbonitrile trifluoroacetate salt] | 200 to 1000 |
| COCCOc1ccc(Nc2c(C)c(N[C@H]3CC[C@H](N)CC3)c(C#N)c3ccnn23)cc1 [Compound 89, 5-(trans-4-Aminocyclohexylamino)-7-[4-(2-methoxyethoxy)phenylamino]-6-methylpyrazolo[1,5-a]pyridine-4-carbonitrile trifluoroacetate salt] | < 200 |
| CCOc1ccc(Nc2c(C3CC3)c(N[C@H]3CC[C@H](N)CC3)c(C#N)c3ccnn23)cc1 [Compound 131, 5-(trans-4-Amionocyclohexylamino)-7-(4-ethoxyphenylamino)-6-cyclopropylpyrazolo[1,5-a]pyridine-4-carbonitrile] | < 200 |
| CCOc1ccc(Nc2c(C)c(N[C@H]3CC[C@H](NCC4CCCCC4)CC3)c(C#N)c3ccnn23)cc1 [Compound 126, 5-({4-[(Cyclohexylmethyl)amino]cyclohexyl}amino)-7-[(4-ethoxyphenyl)amino]-6-methylpyrazolo[1,5-a]pyridine-4-carbonitrile trifluoroacetate salt] | 200 to 1000 |
| CCOc1ccc(Nc2c(C)c(NCCCN)c(C#N)c3ccnn23)cc1 [Compound 107, 5-[(3-Aminopropyl)amino]-7-[(4-ethoxyphenyl)amino]-6-methylpyrazolo[1,5-a]pyridine-4-carbonitrile trifluoroacetate salt] | 200 to 1000 |
| CCOc1ccc(Nc2c(C)c(NCC3CCCCN3)c(C#N)c3ccnn23)cc1 (stereo not drawn) [Compound 119, 7-[(4-Ethoxyphenyl)amino]-6-methyl-5-[(2-piperidylmethyl)amino]pylrazolo[1,5-a]pyridine-4-carbonitrile trifluoroacetate salt] | 1000 to 10000 |
| CCOc1ccc(Nc2c(C)c(NCCCNC3CCCCC3)c(C#N)c3ccnn23)cc1 [Compound 120, 5-{[3-(Cyclohexylamino)propyl]amino}-7-[(4-ethoxyphenyl)amino]-6-methylpyrazolo[1,5-a]pyridine-4-carbonitrile trifluoroacetate salt] | 1000 to 10000 |
| N#Cc1c(N[C@H]2CCCNC2)cc(Nc2ccc(-c3ccccc3)cc2)n2nccc12 [Compound 100, 5-[(3S)-3-Piperidylamino]-7-(4-biphenylylamino)pyrazolo[1,5-a]pyridine-4-carbonitrile trifluoroacetate salt] | 200 to 1000 |
| CCOc1ccc(Nc2c(C)c(NCC3CCNC3)c(C#N)c3ccnn23)cc1 (stereo not drawn) [Compound 112, 7-[(4-Ethoxyphenyl)amino]-6-methyl-5-[(pyrrolidin-3-ylmethyl)amino]pyarzolo[1,5-a]pyridine-4-carbonitrile trifluoroacetate salt] | 1000 to 10000 |
| CCOc1ccc(Nc2c(C)c(NCC3CCCN3)c(C#N)c3ccnn23)cc1 (stereo not drawn) [Compound 114, 7-[(4-Ethoxyphenyl)amino]-6-methyl-5-[(pyrrolidin-2-ylmethyl)amino]pyrazolo[1,5-a]pyridine-4-carbonitrile trifluoroacetate salt] | 1000 to 10000 |
| Cc1nc2ccc(Nc3c(C)c(N[C@H]4CCCNC4)c(C#N)c4ccnn34)cc2s1 [Compound 91, 5-[(3S)-3-Piperidylamino]-7-(2-methylbenzothiazol-6-ylamino)-6-methylpyrazolo[1,5-a]pyridine-4-carbonitrile] | < 200 |
| CCCc1c(N[C@H]2CCCNC2)c(C#N)c2ccnn2c1Nc1ccc(OCC)cc1 [Compound 121, 5-[(3S)-3-Piperidylamino]-7-(4-ethoxyphenylamino)-6-propylpyrazolo[1,5-a]pyridine-4-carbonitrile] | < 200 |
| CCOc1ccc(Nc2c(CC)c(N[C@H]3CC[C@H](N)CC3)c(C#N)c3ccnn23)cc1 [Compound 109, 5-(trans-4-Aminocyclohexylamino)-7-(4-ethoxyphenylamino)-6-ethylpyrazolo[1,5-a]pyridine-4-carbonitrile] | < 200 |
| CCOc1ccc(Nc2c(C)c(NCCC3CCCN3)c(C#N)c3ccnn23)cc1 (stereo not drawn) [Compound 129, 7-[1(4-Ethoxyphenyl)amino]-6-methyl-5-[2-(pyrrolidin-2-ylethyl)amino]pyrazolo[1,5-a]pyridine-4-carbonitrile trifluoroacetate salt] | 1000 to 10000 |
| CCOc1ccc(Nc2c(C)c(NC3CCNCC3)c(C#N)c3ccnn23)cc1 [Compound 103, 7-(4-Ethoxyphenylamino)-6-methyl-5-(4-pyperidylamino)pyrazolo[1,5-a]pyridine-4-carbonitrile trifluoroacetate salt] | 200 to 1000 |
| CSc1ccccc1Nc1cc(N[C@H]2CC[C@H](N)CC2)c(C#N)c2ccnn12 [Compound 99, 5-(trans-4-Aminocyclohexylamino)-7-(2-methylthiophenylamino)pyrazolo[1,5-a]pyridine-4-carbonitrile trifluoroacetate salt] | 1000 to 10000 |
| COCCOc1ccc(Nc2c(C)c(N[C@H]3CCCNC3)c(C#N)c3ccnn23)cc1 [Compound 87, 5-[(3S)-3-Piperidylamino]-7-[4-(2-methoxyethoxy)phenylamino]-6-methylpyrazolo[1,5-a]pyridine-4-carbonitrile trifluoroacetate salt] | < 200 |
| CCCc1c(N[C@H]2CC[C@H](N)CC2)c(C#N)c2ccnn2c1Nc1ccc(OCC)cc1 [Compound 122, 5-(trans-4-Aminocyclohexylamino)-7-(4-ethoxyphenylamino)-6-propylpyrazolo[1,5-a]pyridine-4-carbonitrile] | < 200 |
| CCOc1ccc(Nc2cc(N[C@H]3CCCNC3)c(C#N)c3ccnn23)cc1 [Compound 92, 5-[(3S)-3-Piperidylamino]-7-(4-ethoxyphenylamino)pyrazolo[1,5-a]pyridine-4-carbonitrile trifluoroacetate salt] | 200 to 1000 |
| CCOc1ccc(Nc2c(C3CC3)c(N[C@H]3CCCNC3)c(C#N)c3ccnn23)cc1 [Compound 130, 5-[(3S)-3-Piperidylamino]-7-(4-ethoxyphenylamino)-6-cyclopropylpyrazolo[1,5-a]pyridine-4-carbonitrile] | 200 to 1000 |
| CCOc1ccc(Nc2c(CC)c(N[C@H]3CCCNC3)c(C#N)c3ccnn23)cc1 [Compound 105, 5-[(3S)-3-Piperidylamino]-7-(4-ethoxyphenylamino)-6-ethylpyrazolo [1,5-a]pyridine-4-carbonitrile] | < 200 |
| N#Cc1c(N[C@H]2CC[C@H](N)CC2)cc(Nc2ccc(-c3ccccc3)cc2)n2nccc12 [Compound 97, 5-(trans-4-Aminocyclohexylamino)-7-(4-biphenylylamino)pyrazolo[1,5-a]pyridine-4-carbonitrile trifluoroacetate salt] | < 200 |
| N#Cc1c(N[C@H]2CC[C@H](N)CC2)cc(Nc2ccccc2Cl)n2nccc12 [Compound 94, 5-(trans-4-Aminocyclohexylamino)-7-(2-chlorophenylamino)pyrazolo[1,5-a]pyridine-4-carbonitrile trifluoroacetate salt] | 200 to 1000 |
| CCOc1ccc(Nc2c(C)c(NCCN)c(C#N)c3ccnn23)cc1 [Compound 106, 5-[(2-Aminoethyl)amino]-7-[(4-ethoxyphenyl)amino]-6-methylpyrazolo[1,5-a]pyridine-4-carbonitrile trifluoroacetate salt] | 200 to 1000 |
| CCOc1ccc(Nc2c(C)c(N[C@H]3CC[C@H](NCC(C)C)CC3)c(C#N)c3ccnn23)cc1 [Compound 110, 7-[(4-Ethoxyphenyl)amino]-6-methyl-5-(trans-{4-[(2-methylpropyl)amino]cyclohexyl}amino)pyrazolo[1,5-a]pyridine-4-carbonitrile trifluoroacetate salt] | < 200 |
